Drawing on ChEMBL document CHEMBL5113408, “Design, synthesis and antitumour activity of novel 5(6)-amino-benzimidazolequinones containing a fused morpholine” (Eur J Med Chem, 2022), this text covers IC50 for 40 compounds.

Structures are written as SMILES. pIC50: −log10 of the molar value. Where only a bound is given, the exact number is not on record here.

Common to all, as to format: functional, cell-based
The subject of one assay is MGC-803. Briefly: Antiproliferative activity against human MGC-803 cells assessed as inhibition of cell growth by SRB assay. In general terms: Sulforhodamine B stains cellular protein and so reports cell mass.
The next assay concerns MCF7. Briefly: Antiproliferative activity against human MCF7 cells assessed as inhibition of cell growth by SRB assay.
A further assay has as its system HeLa. Briefly: Antiproliferative activity against human HeLa cells assessed as inhibition of cell growth by SRB assay.
The next assay concerns ECa-109 cell line. Briefly: Antiproliferative activity against human EC109 cells assessed as inhibition of cell growth by SRB assay.

The term pIC50 denotes the IC50 on a negative log10 scale, so that one unit is a factor of ten. In the case of `O=C1C=C(Nc2cccc(F)c2)C(=O)c2c1nc1n2[C@H]2OC[C@@H](O)[C@H]2OC1`, the pIC50 in the assay with MGC-803 is 5.66; with MCF7, 5.26; in the assay with HeLa, 5.19; in the assay with ECa-109 cell line it was 5.15.
With `O=C1C(N2CCCC2)=CC(=O)c2c1nc1n2[C@H]2OC[C@@H](O)[C@H]2OC1`, the pIC50 with MGC-803, in the assay with MCF7, in the assay on HeLa and in the assay with ECa-109 cell line was under 4.80 in each case.
In the case of `O=C1C(Nc2cccc(F)c2)=CC(=O)c2c1nc1n2C[C@@H]([C@H](O)CO)OC1`, the pIC50 in the assay on MGC-803 was 5.52; with MCF7, 5.23; with HeLa, under 4.80; with ECa-109 cell line, 5.18.
For `COc1ccc(NC2=CC(=O)c3nc4n(c3C2=O)[C@H]2OC[C@@H](O)[C@H]2OC4)cc1` the same measures were 5.77, 5.27, 5.32 and under 5.40.
In the case of `Cc1ccc(NC2=CC(=O)c3c(nc4n3[C@H]3OC[C@@H](O)[C@H]3OC4)C2=O)cc1C`, the pIC50 in the assay with MGC-803 was 5.98; with MCF7, 5.31; in the assay with HeLa it was 5.36; in the assay with ECa-109 cell line, 5.39.
For `O=C1C=C(Nc2ccccc2F)C(=O)c2c1nc1n2[C@H]2OC[C@@H](O)[C@H]2OC1` the same measures were 5.68, 5.44, 5.29 and 5.56.
For `COc1ccccc1NC1=CC(=O)c2c(nc3n2[C@H]2OC[C@@H](O)[C@H]2OC3)C1=O` the same measures were 5.78, 5.18, 5.13 and under 5.40.
For `CCCc1ccc(NC2=CC(=O)c3c(nc4n3[C@H]3OC[C@@H](O)[C@H]3OC4)C2=O)cc1`, in that order: 5.72, under 5.40, 5.22 and under 5.40.
For the compound `COc1cccc(NC2=CC(=O)c3nc4n(c3C2=O)[C@H]2OC[C@@H](O)[C@H]2OC4)c1`, the pIC50 was 5.75 in the assay with MGC-803, under 5.40 with MCF7, 5.37 with HeLa and 5.12 with ECa-109 cell line.
As to `O=C1C(Nc2cccc(Cl)c2)=CC(=O)c2c1nc1n2C[C@@H]([C@H](O)CO)OC1`, the pIC50 was 5.54 with MGC-803, 5.24 in the assay with MCF7, 4.86 in the assay with HeLa and 5.22 in the assay with ECa-109 cell line.
For `CCOc1ccccc1NC1=CC(=O)c2nc3n(c2C1=O)[C@H]1OC[C@@H](O)[C@H]1OC3` the same measures were 5.61, under 5.40, 5.22 and 5.33.
Take `O=C1C=C(N2CCCC2)C(=O)c2c1nc1n2[C@H]2OC[C@@H](O)[C@H]2OC1`: the pIC50 in the assay on MGC-803, with MCF7, with HeLa and in the assay on ECa-109 cell line was under 4.80 each time.
As to `O=C1C=C(Nc2ccc(Br)cc2)C(=O)c2c1nc1n2C[C@@H]([C@H](O)CO)OC1`, the pIC50 in the assay with MGC-803 is 5.56; with MCF7 it was 5.21; in the assay on HeLa it was 5.37; in the assay with ECa-109 cell line it was 5.08.
For `O=C1C(N2CCCCC2)=CC(=O)c2c1nc1n2[C@H]2OC[C@@H](O)[C@H]2OC1`, in that order: under 5.40, under 5.10, under 4.80 and under 5.10.
As for `O=C1C(NC2CCCC2)=CC(=O)c2c1nc1n2[C@H]2OC[C@@H](O)[C@H]2OC1`, the pIC50 with MGC-803, with MCF7, in the assay with HeLa and in the assay on ECa-109 cell line was under 4.80 throughout.
With `Cc1ccc(NC2=CC(=O)c3nc4n(c3C2=O)[C@H]2OC[C@@H](O)[C@H]2OC4)cc1`, the pIC50 with MGC-803 is 5.85; in the assay with MCF7, 5.78; in the assay with HeLa it was 5.41; in the assay with ECa-109 cell line, 5.46.
As to `Cc1ccc(NC2=CC(=O)c3c(nc4n3[C@H]3OC[C@@H](O)[C@H]3OC4)C2=O)cc1`, the negative logarithm of the IC50 (pIC50) was 5.81 in the assay on MGC-803, under 5.40 with MCF7, 5.18 in the assay on HeLa and under 5.40 with ECa-109 cell line.
As for `O=C1C=C(NC2CC2)C(=O)c2c1nc1n2C[C@@H]([C@H](O)CO)OC1`, the negative logarithm of the IC50 (pIC50) in the assay on MGC-803, in the assay on MCF7, in the assay on HeLa and in the assay with ECa-109 cell line was under 4.80 throughout.
Turning to `COc1cccc(NC2=CC(=O)c3c(nc4n3[C@H]3OC[C@@H](O)[C@H]3OC4)C2=O)c1`, the pIC50 with MGC-803 was 5.75; in the assay with MCF7, 5.42; in the assay on HeLa, under 5.10; with ECa-109 cell line, 5.48.
Regarding `O=C1C(NCc2ccccc2)=CC(=O)c2c1nc1n2[C@H]2OC[C@@H](O)[C@H]2OC1`, the pIC50 was 5.46 in the assay on MGC-803, under 5.10 with MCF7, 4.96 in the assay with HeLa and under 5.10 in the assay with ECa-109 cell line.
For `O=C1C=C(Nc2ccccc2F)C(=O)c2c1nc1n2C[C@@H]([C@H](O)CO)OC1`, the pIC50 in the assay with MGC-803 is 5.49; with MCF7, 5.04; in the assay on HeLa, 5.23; in the assay on ECa-109 cell line, 5.10.
For `O=C1C=C(NC2CCCC2)C(=O)c2c1nc1n2[C@H]2OC[C@@H](O)[C@H]2OC1` the same measures were under 5.10, under 4.80, under 4.80 and under 4.80.
For `O=C1C(Nc2ccc(I)cc2)=CC(=O)c2c1nc1n2C[C@@H]([C@H](O)CO)OC1` the same measures were 5.61, 5.29, 5.26 and 5.50.
For `O=C1C(Nc2cccc(Cl)c2)=CC(=O)c2c1nc1n2[C@H]2OC[C@@H](O)[C@H]2OC1` the same measures were 5.82, 5.53, 5.10 and 5.51.
`CCCN(CCC)C1=CC(=O)c2nc3n(c2C1=O)[C@H]1OC[C@@H](O)[C@H]1OC3`: the pIC50 in the assay on MGC-803, in the assay with MCF7, in the assay with HeLa and in the assay with ECa-109 cell line was under 4.80 in each case.
Take `O=C1C(Nc2ccccc2F)=CC(=O)c2c1nc1n2C[C@@H]([C@H](O)CO)OC1`: the pIC50 with MGC-803 is 5.43; in the assay with MCF7 it was 5.29; in the assay with HeLa it was under 4.80; in the assay with ECa-109 cell line, 5.26.
For `O=C1C=C(Nc2cccc(Cl)c2)C(=O)c2c1nc1n2[C@H]2OC[C@@H](O)[C@H]2OC1` the same measures were 5.75, 5.33, 5.22 and 5.33.
Turning to `O=C1C(Nc2ccc(C(F)(F)F)cc2)=CC(=O)c2c1nc1n2C[C@@H]([C@H](O)CO)OC1`, the pIC50 was 5.69 in the assay on MGC-803, 5.37 in the assay on MCF7, 5.14 with HeLa and 5.39 in the assay on ECa-109 cell line.
As for `COc1cccc(NC2=CC(=O)c3c(nc4n3C[C@@H]([C@H](O)CO)OC4)C2=O)c1`, the pIC50 in the assay with MGC-803 is 5.45; in the assay on MCF7 it was 5.18; with HeLa, 5.21; in the assay on ECa-109 cell line, 5.16.
For `Cc1ccc(NC2=CC(=O)c3c(nc4n3C[C@@H]([C@H](O)CO)OC4)C2=O)cc1` the same measures were 5.39, 5.13, 5.23 and 5.29.
For `O=C1C=C(N2CCC2)C(=O)c2c1nc1n2[C@H]2OC[C@@H](O)[C@H]2OC1` the same measures were under 4.80, under 4.80, under 4.80 and under 4.80.
For the compound `O=C1C=C(Nc2ccc(Br)cc2)C(=O)c2c1nc1n2[C@H]2OC[C@@H](O)[C@H]2OC1`, the pIC50 was 6.00 with MGC-803, 5.59 in the assay on MCF7, 5.42 with HeLa and 5.55 in the assay on ECa-109 cell line.
Consider `O=C1C=C(Nc2ccc(I)cc2)C(=O)c2c1nc1n2[C@H]2OC[C@@H](O)[C@H]2OC1`, for which the pIC50 with MGC-803 is 5.85; in the assay with MCF7 it was 5.65; in the assay with HeLa, 5.39; with ECa-109 cell line, 5.64.
For `COc1ccccc1NC1=CC(=O)c2nc3n(c2C1=O)[C@H]1OC[C@@H](O)[C@H]1OC3` the same measures were 5.79, under 5.40, 5.53 and under 5.40.
For `O=C1C=C(Nc2cccc(Cl)c2)C(=O)c2c1nc1n2C[C@@H]([C@H](O)CO)OC1`, in that order: 5.28, 5.03, 5.39 and 4.95.
For `Cc1ccc(NC2=CC(=O)c3nc4n(c3C2=O)C[C@@H]([C@H](O)CO)OC4)cc1` the same measures were 5.32, 4.97, 5.41 and 5.10.
For the compound `CCOc1ccc(NC2=CC(=O)c3nc4n(c3C2=O)C[C@@H]([C@H](O)CO)OC4)cc1`, the pIC50 in the assay on MGC-803 is 5.37; with MCF7, 4.95; in the assay on HeLa it was 5.39; in the assay on ECa-109 cell line, 5.01.
For `Cc1ccc(NC2=CC(=O)c3c(nc4n3C[C@@H]([C@H](O)CO)OC4)C2=O)cc1C`, in that order: 5.26, under 4.80, 5.00 and under 4.80.
For `O=C1C(Nc2ccc(C(F)(F)F)cc2)=CC(=O)c2c1nc1n2[C@H]2OC[C@@H](O)[C@H]2OC1`, in that order: 5.73, under 5.40, 5.05 and 5.65.
For `O=C1C(Nc2ccc(Br)cc2)=CC(=O)c2c1nc1n2[C@H]2OC[C@@H](O)[C@H]2OC1` the same measures were 5.69, 5.36, 5.28 and 5.70.
